Measured values from PMC11207040, “Synthesis and Biological Studies of New Temporin A Analogs Containing Unnatural Amino Acids in Position 7” (Pharmaceutics, 2024).
Converted amounts (≈) assume the structure as drawn. “And” between values parts separate entries of the source, which are not always exact repeats. Equal values may be shown once. Read-outs that look alike come from different tables or passages of the source. Non-standard residues stand in square brackets, D forms with d. Residues, ends and D or L forms follow the SMILES beside them. Cit = NC(=O)NCCC[C@H](N)C(=O)O; Dap = NC[C@H](N)C(=O)O

Assays:
[1] = system: Bacillus subtilis NBIMCC 3562; format: cell-based; conditions: for Inhibition effect, B. subtilis 3562: zone of peptide over zone of antibiotic x 100; for Inhibition zone, B. subtilis 3562: 20 µL per disc, 24 h
Experimental: (§1) The parent peptide Temporin A and the novel analogs were subjected to tests against model strains Escherichia coli NBIMCC 8785, Bacillus subtilis NBIMCC 3562, Arthrobacter oxydans NBIMCC 9333, Pseudomonas aeruginosa NBIMCC 3700, and Candida albicans NBIMCC 74, for the assessment of their antimicrobial activity. The strains were acquired from the National Bank for Industrial Microorganisms and Cell Cultures (NBIMCC, Bulgaria). The strain E. coli 8785 was cultured in Luria-Bertani broth (LB, HiMedia, Mumbai, India); B. subtilis 3562—in nutrient broth (NB, HiMedia, Mumbai, India); A. oxydans 9333; P. aeruginosa 3700—in meat peptone agar (MPA) medium; and C. albicans 74—in yeast mold (YM) medium. An incubator shaker ES-20/60 (Biosan, Latvia) was used for the cultivation and was set to 30 °C for B. subtilis 3562, A. oxydans 9333, and C. albicans 74; and 37 °C for E. coli 8785 and P. aeruginosa 3700, with a 24 h shaking period at 120 rpm. The microbial cultures were then adjusted to a turbidity of 0.5 McFarland using a Grant-bio DEN-1B densitometer (Grant Instruments, Royston, UK) for further use.
(§2) The disk-diffusion method was used as an additional method, with the aim of determining the percent inhibition of the tested samples against the model strains. Sterile plates with LB/NB/MPA/YM agar medium were inoculated on the surface with 100 μL from each microbial culture and incubated at 30 or 37 °C for 30 min, for the suspension to penetrate the agar. After that, sterile paper discs (HiMedia, Mumbai, India) with a diameter of 6 mm were soaked with 20 µL of the peptide solutions with concentrations of 1.4 mg/mL and 10 mg/mL and placed on the agar surface. Sterile paper discs with 10% EtOH/H2O were used as a negative control, and the corresponding strain antibiotic disks (HiMedia, Mumbai, India)—as a positive control. The incubation of the plate was performed at 30/37 °C for 24 h. The antimicrobial activity was analyzed by measuring the diameter of the inhibition zones in mm. The experiments were conducted in triplicates, and the average values for the percent of inhibition as a correlation between the inhibition zone of the peptides over the inhibition zone of the antibiotic multiplied by 100 were calculated.

[2] = system: MCF-7 cells; assay: MTT antiproliferative assay, MCF-7; format: cell-based, human; conditions: for IC50: MTT, 72 h, read-out: Mean IC50 ± SD, MCF-7; for SI (Selectivity Index), MCF-7: SI = IC50 MCF-12F/IC50 tumor cells
Experimental: (§3) The cell lines BALB 3T3 (mouse embryonic fibroblasts) and MCF-12F (human breast epithelial cells) were used as models for healthy tissue. The MCF-7 and MDA-MB-231 cell lines were used as in vitro models for luminal A- and basal B-type breast cancer, respectively. Cell lines were obtained from the American Type Cultures Collection (ATCC, Manassas, VA, USA). Cells were cultured in Dulbecco modified Eagle’s medium (DMEM) supplemented with 10% fetal bovine serum (FBS), 100 U/mL penicillin, and 0.1 mg/mL streptomycin (Sigma-Aldrich, Schnelldorf, Germany) in an incubator at 37 °C, 5% CO2 and 95% humidity. Plastic flasks 75 cm^2 (Biologix, Lenexa, KS, USA) were used to grow the cells.
(§4) The antiproliferative activity testing was performed on cell cultures using the MTT-dye reduction assay. This assay is based on the metabolism of MTT to insoluble formazan by mitochondrial reductases. The formazan concentration can be determined spectrophotometrically. The measured absorption is an indicator of cell viability. Cell lines (MCF-12F, MCF-7 and MDA-MB-231) were used in the experiments. Cells were plated at a density of 1 × 10^3 cells/100 µL in each well of 96-well microplates and allowed to adhere for 24 h before treatment with test compounds. A concentration range from 4 to 1000 μM was applied for 72 h. The formazan absorption was registered using a microplate reader at λ = 540 nm. Antiproliferative activities were expressed as IC50 values (concentrations required for 50% inhibition of cell growth).

[3] = system: MDA-MB-231 cells; assay: MTT antiproliferative assay, MDA-MB-231; format: cell-based, human; conditions: for IC50: MTT, 72 h, read-out: Mean IC50 ± SD, MDA-MB-231; for SI (Selectivity Index), MDA-MB-231: SI = IC50 MCF-12F/IC50 tumor cells
Experimental: as §3, §4

[4] = system: Arthrobacter oxydans NBIMCC 9333; format: cell-based; conditions: 24 h
Experimental: as §1
(§5) The minimal inhibitory concentration (MIC) of the peptides was determined using the broth dilution method. Stock solutions of the peptides with a concentration of 10 mg/mL in 10% EtOH/H2O were prepared. Suspensions of the bacteria in the corresponding media were added to 96-well U-shaped bottom polystyrene plates (Deltalab S.L., Spain) and exposed to the peptide in the concentration range from 0 to 320 µg/mL, and a 10% EtOH/H2O control, diluted using the same scheme as the peptides, was also used. The plates were then incubated under aerobic conditions at the corresponding temperature for 24 h. The MIC (µg/mL) was assumed as the lowest concentration of the antimicrobial, where there was visible inhibition of the strain. The absorbance was measured at 630 nm (Microplate reader PKL PPC 142, Paramedical srl, Salerno, Italy). To determine the minimal bactericidal concentration (MBC) and minimal fungicidal concentration (MFC), 10 μL from concentrations greater than or equal to the MIC was placed on the corresponding solid nutrient medium. The Petri dishes were then incubated at 30 or 37 °C for 24 h. All experiments were conducted in a triplicate.

[5] = system: MCF-12F cells; assay: MTT antiproliferative assay, MCF-12F; format: cell-based, human; conditions: 72 h, non-tumorigenic cell line, read-out: Mean IC50 ± SD, MCF-12F
Experimental: as §3, §4

[6] = system: BALB 3T3 clone A31 cells; assay: 3T3 NRU cytotoxicity/phototoxicity test; format: cell-based, mouse; conditions: PIF = CC50 −Irr/CC50 +Irr; PIF < 2 = not phototoxic
Experimental: as §3
(§6) The cytotoxicity/phototoxicity testing was performed as described by the OECD Guidelines for the Testing of Chemicals, Section 4, Test No. 432: In Vitro 3T3 NRU Phototoxicity Test. BALB 3T3, clone A31 cells were grown in 75 cm^2 tissue culture flasks in DMEM high-glucose (4.5 g/L), 10% FBS, and antibiotics at 37.5 °C, in a humidified atmosphere under 5% CO2. Cells were plated at 1 × 10^4 cells / 100 μL culture medium in each well of 96-well microplates and allowed to adhere for 24 h before treatment with test compounds. Peptides were dissolved in DMSO and diluted with culture medium to working concentrations from 4 to 1000 μM. In phototoxicity tests, 96-well plates were irradiated (+Irr) with a dose of 2.4 J/cm^2 using an artificial solar light simulator Helios-iO (SERIC Ltd., Tokyo, Japan), and the cells were incubated for an additional 24 h. After treatment with a Neutral Red medium, washing, and application of the NR Desorb solution, the absorption was measured on a microplate reader at a wavelength of 540 nm. Cytotoxicity/phototoxicity was expressed as CC50 values (concentrations required for 50% cytotoxicity).

[7] = 3T3 NRU cytotoxicity/phototoxicity test; format: cell-based, mouse; conditions: mouse; for CC50: cytotoxicity, no irradiation, BALB 3T3 clone A31, Neutral Red uptake, read-out: Mean CC50 ± SD, −Irr; for CC50 at 24 h: phototoxicity, irradiated 2.4 J/cm^2, BALB 3T3 clone A31, Neutral Red uptake, read-out: Mean CC50 ± SD, +Irr
Experimental: as §3, §6

[8] = system: Pseudomonas aeruginosa NBIMCC 3700; format: cell-based; conditions: for Inhibition effect, P. aeruginosa 3700: zone of peptide over zone of antibiotic x 100; for Inhibition zone, P. aeruginosa 3700: 20 µL per disc, 24 h
Experimental: as §1, §2

[9] = system: Candida albicans NBIMCC 74; format: cell-based; conditions: for Inhibition zone, C. albicans 74: 20 µL per disc, 24 h
Experimental: as §1, §2

[10] = system: Escherichia coli NBIMCC 8785; format: cell-based; conditions: for Inhibition zone, E. coli 8785: 20 µL per disc, 24 h
Experimental: as §1, §2

[11] = system: Arthrobacter oxydans NBIMCC 9333; format: cell-based; conditions: for Inhibition effect, A. oxydans 9333: zone of peptide over zone of antibiotic x 100; for Inhibition zone, A. oxydans 9333: 20 µL per disc, 24 h
Experimental: as §1, §2

[12] = system: Bacillus subtilis NBIMCC 3562; format: cell-based; conditions: broth dilution, 0 to 320 µg/mL, 24 h; NI = no inhibition monitored
Experimental: as §1, §5

[13] = 10 µg/disk, positive control on the plate of the peptide of that line

Row | Structure (SMILES) | IC50 [2] [µM] | SI (Selectivity Index), MCF-7 [2] | IC50 [3] [µM] | SI (Selectivity Index), MDA-MB-231 [3] | IC50 [5] [µM] | PIF (photo irritation factor) [6] | CC50 [7] [µM] | CC50 at 24 h [7] [µM] | Inhibition effect, P. aeruginosa 3700 ([8]; 1.4 mg/mL) [%] | Inhibition effect, P. aeruginosa 3700 ([8]; 10 mg/mL) [%] | Inhibition zone, P. aeruginosa 3700 ([8]; peptide 1.4 mg/mL) [mm] | Inhibition zone, P. aeruginosa 3700 ([8]; peptide 10 mg/mL) [mm] | Inhibition zone, C. albicans 74 ([9]; peptide 1.4 mg/mL) [mm] | Inhibition zone, C. albicans 74 ([9]; peptide 10 mg/mL) [mm] | Inhibition zone, E. coli 8785 ([10]; peptide 1.4 mg/mL) [mm] | Inhibition zone, E. coli 8785 ([10]; peptide 10 mg/mL) [mm] | Inhibition effect, B. subtilis 3562 ([1]; 1.4 mg/mL) [%] | Inhibition effect, B. subtilis 3562 ([1]; 10 mg/mL) [%] | Inhibition zone, B. subtilis 3562 ([1]; peptide 1.4 mg/mL) [mm] | Inhibition zone, B. subtilis 3562 ([1]; peptide 10 mg/mL) [mm] | other results
1 | O=C(N[C@H](CO)[C@H](O)c1ccc([N+](=O)[O-])cc1)C(Cl)Cl [Chloramphenicol, reference compound] |  |  |  |  |  |  |  |  |  |  |  |  |  |  |  |  |  |  |  |  | Inhibition zone, B. subtilis 3562, antibiotic control ([1]; 30 µg/disk, positive control on the plate of the peptide of that line): 26.0 mm and 25.0 mm
2 | CC[C@H](C)[C@H](NC(=O)CNC(=O)[C@H](CO)NC(=O)[C@H](CC(C)C)NC(=O)[C@@H](NC(=O)[C@H](CCCNC(N)=O)NC(=O)CNC(=O)[C@@H](NC(=O)[C@H](CC(C)C)NC(=O)[C@@H]1CCCN1C(=O)[C@H](CC(C)C)NC(=O)[C@@H](N)Cc1ccccc1)[C@@H](C)CC)C(C)C)C(=O)N[C@@H](CC(C)C)C(N)=O [DTCit, FLPLIG-Cit-VLSGIL-NH2] (H-FLPLIG[Cit]VLSGIL-NH2; N-terminus assumed) | 150 ± 6.94 | 2.01 | 335 ± 4.37 | 0.90 | 301 ± 10.5 | 1.07 | 356 ± 7.64 | 332 ± 12.3 | 0.0 | 0.0 | 0.0 | 0.0 | 0.0 | 0.0 | 0.0 | 0.0 | 0.0 | 0.0 | 0.0 | 0.0 | MIC, A. oxydans 9333 ([4]; broth dilution, 0 to 320 µg/mL, NI = no inhibition monitored): 160 µg/mL (≈ 114 µM); MBC, A. oxydans 9333 ([4]; plated from concentrations ≥ MIC): 160 µg/mL (≈ 114 µM); Inhibition effect, A. oxydans 9333 ([11]; 1.4 mg/mL): 0.0%; Inhibition effect, A. oxydans 9333 ([11]; 10 mg/mL): 0.0%; Inhibition zone, A. oxydans 9333 ([11]; peptide 1.4 mg/mL): 0.0 mm; Inhibition zone, A. oxydans 9333 ([11]; peptide 10 mg/mL): 0.0 mm
3 | CC[C@H](C)[C@H](NC(=O)CNC(=O)[C@H](CO)NC(=O)[C@H](CC(C)C)NC(=O)[C@@H](NC(=O)[C@H](CN)NC(=O)CNC(=O)[C@@H](NC(=O)[C@H](CC(C)C)NC(=O)[C@@H]1CCCN1C(=O)[C@H](CC(C)C)NC(=O)[C@@H](N)Cc1ccccc1)[C@@H](C)CC)C(C)C)C(=O)N[C@@H](CC(C)C)C(N)=O [DTDap, FLPLIG-Dap-VLSGIL-NH2] (H-FLPLIG[Dap]VLSGIL-NH2; N-terminus assumed) | 473 ± 16.2 | 1.33 | 581 ± 17.5 | 1.09 | 630 ± 9.97 | 0.99 | 924 ± 21.6 | 933 ± 20.7 | 0.0 | 51.8 | 0.0 | 8.8 ± 0.8 | 0.0 | 0.0 | 0.0 | 0.0 | 0.0 | 0.0 | 0.0 | 0.0 | MIC, B. subtilis 3562 [12]: 320 µg/mL (≈ 241 µM); Inhibition effect, A. oxydans 9333 ([11]; 1.4 mg/mL): 0.0%; Inhibition effect, A. oxydans 9333 ([11]; 10 mg/mL): 53.0%; Inhibition zone, A. oxydans 9333 ([11]; peptide 1.4 mg/mL): 0.0 mm; Inhibition zone, A. oxydans 9333 ([11]; peptide 10 mg/mL): 9.8 ± 0.3 mm
4 | CNC(C)C1CCC(N)C(OC2C(N)CC(N)C(OC3OCC(C)(O)C(NC)C3O)C2O)O1 (stereo not shown) [Gentamicin, reference compound] |  |  |  |  |  |  |  |  |  |  |  |  |  |  |  |  |  |  |  |  | Inhibition zone, P. aeruginosa 3700, antibiotic control [8, 13]: 17.0 mm and 16.0 mm; Inhibition zone, E. coli 8785, antibiotic control [10, 13]: 18.0 mm
5 | CCC(C)n1ncn(-c2ccc(N3CCN(c4ccc(OCC5COC(Cn6cncn6)(c6ccc(Cl)cc6Cl)O5)cc4)CC3)cc2)c1=O (stereo not shown) [Itraconazole, reference compound] |  |  |  |  |  |  |  |  |  |  |  |  |  |  |  |  |  |  |  |  | Inhibition zone, C. albicans 74, antibiotic control [9, 13]: 15.0 mm and 14.0 mm
